The values below come from patent publication US20230301981A1, “TLR7/8 ANTAGONISTS AND USES THEREOF” (Merck Patent GmbH, priority 2020, published 2023).

The test has as its target T1, TLR⅞ (Mus musculus, UniProt P58681).
T1 sequence (P58681 27-1050): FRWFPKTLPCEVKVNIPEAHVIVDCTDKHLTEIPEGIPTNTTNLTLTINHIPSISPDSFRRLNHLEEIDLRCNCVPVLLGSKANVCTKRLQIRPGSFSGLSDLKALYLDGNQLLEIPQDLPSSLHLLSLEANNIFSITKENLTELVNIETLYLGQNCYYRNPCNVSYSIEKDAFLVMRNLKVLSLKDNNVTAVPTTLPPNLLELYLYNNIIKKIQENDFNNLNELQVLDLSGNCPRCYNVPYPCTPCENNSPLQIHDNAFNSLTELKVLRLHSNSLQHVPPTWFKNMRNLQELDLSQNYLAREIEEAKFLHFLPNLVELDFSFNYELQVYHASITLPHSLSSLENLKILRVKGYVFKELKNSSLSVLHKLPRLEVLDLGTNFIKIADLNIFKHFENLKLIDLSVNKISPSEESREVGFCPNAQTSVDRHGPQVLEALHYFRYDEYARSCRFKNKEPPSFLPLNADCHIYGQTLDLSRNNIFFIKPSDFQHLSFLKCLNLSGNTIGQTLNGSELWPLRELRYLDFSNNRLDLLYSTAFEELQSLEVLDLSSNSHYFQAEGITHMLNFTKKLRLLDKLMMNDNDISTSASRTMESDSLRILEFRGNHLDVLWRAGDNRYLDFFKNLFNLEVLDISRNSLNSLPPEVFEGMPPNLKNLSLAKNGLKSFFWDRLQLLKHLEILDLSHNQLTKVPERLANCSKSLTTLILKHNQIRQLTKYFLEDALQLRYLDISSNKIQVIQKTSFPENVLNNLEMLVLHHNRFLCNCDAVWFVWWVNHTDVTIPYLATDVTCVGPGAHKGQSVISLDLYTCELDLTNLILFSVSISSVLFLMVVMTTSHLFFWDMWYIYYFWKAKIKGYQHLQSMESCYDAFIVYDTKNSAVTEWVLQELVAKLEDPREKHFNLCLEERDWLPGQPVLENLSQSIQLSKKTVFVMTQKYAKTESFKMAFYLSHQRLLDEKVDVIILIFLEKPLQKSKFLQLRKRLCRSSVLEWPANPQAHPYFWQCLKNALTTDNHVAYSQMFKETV
Put plainly: Mouse spleenocytes cell assay with R848 stimulation (IL6/TNFa ELISA). Format: cell-based. The following applies: R848 1 µM. The protocol:
Mouse spleen from healthy, female C57BL-6/N mice (n=2) were taken out in 50 mL tubes with B-Cell medium and the experiment started directly. The spleen was grinded through a cell strainer by using the punch of a syringe into a 50 mL Falcon tube. Cell strainer and punch were flushed with appropriate amount of washing buffer to avoid cellloss. Then the spleenocytes were centrifuged for 10 min at 552 xg (1600 rpm), 4° C. The erythrocytes within the cell pellet were lysed by resuspending pellet in 1 ml ACK-lysing buffer (4° C.) and incubate for 1 minute at RT. Lysis was stopped by filling up to 50 ml with washing buffer and centrifuged for 10 min at 552 xg (1600 rpm), 4° C. Cells were washed in B-cell Media (IMDM + 25 mM HEPES + 10%FCS + pen/strep + NEAA 10 nM + Sodium Pyrovat 100 nM, β-Mercaptoethanol 50 nM), counted and seeded in a density of 148500 cells per well in a 96 well MTP (135µl of 1,1×106c/ml). The cells were pre-treated with antimalarials (15 µL, in different concentrations according to dose-response curve ranging from 100 pM-50 µM)) for 30 min, at 37° C., 5% CO2, followed by TLR⅞ stimulation with R848 (15 µl, final concentration of 1 µM) or a TLR9 stimulation with CpG (15 µl, final concentration of 5 µM) and incubated at 37° C., 5% CO2 for 18 - 24 hours.
Supernatants were collected and transferred into a 96 well round bottom MTP and stored at -20° C. until ELISA formouse IL6 and mouse TNFa were performed. Plates were read directly after assay on an Envision Multiplate reader. Results were analyzed with GraphPadPrism V8.0. Plot the calculated amount of produced IL6 or TNFa in pg/ml on y-axis and the concentration of each MSC concentration at half logarhythmic scaling on the x-axis to achieve a dose-response curve. Determine IC50 values using Graph Pad Prism analysis software (Transform Y values using “X=Log(X) and log inhibitor vs. response; Variable slope (four parameters).
In general terms: In an ELISA, binding on a coated surface is turned into a signal by an enzyme label.

As for `CCN(CCO)CCCC(C)Nc1ccnc2cc(Cl)ccc12` (stereo not drawn) [HYDROXY-CHLOROQUINE HCQ, hydroxychloroquine], the “IC50 TLR⅞ (IL6 readout) mouse spleenocytes (n=2)” value (IL6 readout) is on record as “no suppr”. Under “IL6 readout, read-out: IC50 TLR⅞ (IL6 readout) mouse spleenocytes (n=2)”, the IC50 (commonly the concentration needed to halve the response being measured) was found to be 27.1 µM. Further, under “TNF readout”, the “IC50 TLR⅞ (TNF readout) mouse spleenocytes (n=2)” value is on record as “no suppr”.
